Legend:
[1] = system: primary striatal medium spiny neurons; test: cGMP accumulation in cultured primary striatal medium spiny neurons; type: cell-based, rat; settings: 100 μM; SNP-stimulated
[2] = system: primary striatal medium spiny neurons; test: cGMP accumulation in SNP-stimulated striatal cultures; type: cell-based, rat; settings: for EC200 (concentration giving a 2-fold increase in cGMP): concentration yielding a 2-fold increase in cGMP, SNP 100 μM for 2 min after 20 min inhibitor incubation
Procedure: (§1) Striatal cultures were prepared as previously described (Ventimiglia et al., Eur. J. Neurosci. 7: 213-222, 1995). Briefly, striata (caudate nucleus and putamen) were dissected from E17 rats, dissociated to produce a single cell suspension, and plated at a density of 5×10^4 neurons/well in 96-well plates coated with poly-L-ornithine/laminin (Cat. No. 354657, BD Biosciences, Bedford, Mass.). The cells were plated in Neurobasal medium (Cat. No. 21103-049, Gibco BRL, Grand Island, N.Y.) with B27 supplements (Cat. No. 17504-010, Gibco BRL) and human recombinant brain-derived neurotrophic factor (BDNF) (100 ng/ml) (Cat. No. 248-BD, R & D Systems, Minneapolis, Minn.). Striatal medium spiny neurons comprised 50-60% of cells in these cultures, as confirmed by a GABA immunoreactivity protocol as previously described (Ventimiglia et al., 1995, supra). Expression of PDE10A mRNA in these cultures was confirmed by RNase protection assay, as further described below.
(§2) After approximately four days in vitro, the striatal cells were washed with Ca^2+/Mg^2+ free phosphate buffered saline (pH 7.4) and preincubated for an hour in a buffer containing Ca^2+/Mg^2+ free phosphate buffered saline, 30 mM HEPES (pH 7.4), 1 mM CaCl2, 1 mg/ml dextrose, and 5 mM MgCl2. The striatal cells were then exposed to one of the PDE inhibitors and incubated for 20 min. at 37° C. When measuring cGMP, the neurons were stimulated with sodium nitroprusside (SNP) (100 μM) for two min. after the 20 min. incubation with the PDE inhibitor.
(§3) The cells were lysed using a 9:1 combination of SPA direct screening Assay Buffer (0.05 M acetate with 0.01% sodium azide) and Buffer A (133 mg/ml dodecyltrimethylammonium bromide), and the lysates were frozen on dry ice.

[3] = system: primary striatal medium spiny neurons; test: cAMP accumulation in forskolin-stimulated striatal cultures; type: cell-based, rat; settings: ratio of EC200 values in striatal cultures
Procedure: as §1, §2, §3

[4] = system: PDE10A; test: Papaverine inhibition of PDE10A, SPA-based PDE assay; type: biochemical
Procedure: Phosphodiesterases 7-11 were generated from full length recombinant clones transfected into SF9 cells as previously described (Fisher et al., Biochem. Biophys. Res. Comm. 246: 570-577, 1998; Fisher et al., J. Biol. Chem. 273: 15559-15564, 1998b; Soderling et al., PNAS 96: 7071-7076, 1999; Fawcett et al., PNAS 97: 3702-3707, 2000). The enzymes were purified by FPLC from the soluble fraction of cell lysates as described in Boolell et al., supra.
PDE activity was measured using a SPA-based method as previously described (Fawcett et al., 2000). Assays were conducted using a fixed amount of PDE10A enzyme in the presence of varying inhibitor concentrations. […] The final assay volume was adjusted to 100 μl with assay buffer (20 mM Tris-HCl pH 7.4, 5 mM MgCl2, 1 mg/ml bovine serum albumin).
Reactions were initiated with the addition of enzyme. Samples were incubated for 30-60 min. at 30° C. to give <30% substrate turnover and terminated with 50 μl yttrium silicate SPA beads (Amersham) containing 3 mM of the appropriate unlabelled cyclic nucleotide. Plates were re-sealed and shaken for 20 min.; the beads were then allowed to settle for 30 min. in the dark and then counted on a TopCount plate reader (Packard, Meriden, Conn.). Radioactivity units were converted to percent activity as compared to an uninhibited control (100%). […]

[5] = system: PDE1; settings: substrate at 1/3 Km
[6] = system: PDE7; settings: substrate at 1/3 Km
[7] = system: PDE10A; settings: cited from earlier work
[8] = system: primary striatal medium spiny neurons; test: cAMP accumulation in cultured primary striatal medium spiny neurons; settings: Rattus norvegicus, Neuron

Q: Which “effect on level of cGMP” value [1] does the source give for `CCCOc1ccccc1-c1nc2nn[nH]c2c(=O)[nH]1` [Zaprinast] here?
A: The value was “did not quite double the level of cGMP”.

Q: Which EC200 (concentration giving a 2-fold increase in cGMP) ([2]; Rattus norvegicus, Neuron) does the source give for `CCCOc1ccccc1-c1nc2nn[nH]c2c(=O)[nH]1` [Zaprinast, zaprinast] here?
A: The EC200 (concentration giving a 2-fold increase in cGMP) was greater than 100 µM.

Q: And the EC200 (concentration giving a 2-fold increase in cGMP) [2]?
A: The EC200 (concentration giving a 2-fold increase in cGMP) was 98.3 ± 10.3 µM.

Q: What about the “cAMP EC200/cGMP EC200” value [3] of the same compound?
A: The value was 1.

Q: Which EC200 (concentration giving a 2-fold increase in cGMP) ([2]; Rattus norvegicus, Neuron) does the source give for `CC(C)Cn1c(=O)n(C)c(=O)c2[nH]cnc21` [IBMX, 3-isobutyl-1-methylxanthine] here?
A: Its EC200 (concentration giving a 2-fold increase in cGMP) is 19 µM.

Q: What about the EC200 (concentration giving a 2-fold increase in cGMP) [2] of the same compound?
A: Its EC200 (concentration giving a 2-fold increase in cGMP) is 19.5 µM.

Q: And the “cAMP EC200/cGMP EC200” value [3]?
A: Its value is 1.5.

Q: Which results are given for `COc1ccc(Cc2nccc3cc(OC)c(OC)cc23)cc1OC` [Papaverine]?
A: mode of inhibition [4]: competitive inhibitor; cGMP levels elevated over cultures stimulated with SNP alone (maximal effect) ([2]; 100 μM papaverine, SNP 100 μM): 5 fold; effect on cGMP levels in unstimulated cells ([2]; cells unstimulated by SNP or forskolin): did not affect; IC50 [5]: 37 µM; IC50 [6]: 27 µM

Q: With `Nc1nc2c(ncn2[C@@H]2O[C@@H]3COP(=O)(O)O[C@H]3[C@H]2O)c(=O)[nH]1` [cGMP, cyclic guanine 3′5′-monophosphate] as the compound, how does the “greater Vmax for cGMP over cAMP” value ([7]; Fujishige et al., 1999) read?
A: The value was “approximately 5 fold”.

Q: And the Km ([7]; read-out: Km for cGMP)?
A: Its Km is 3 µM.

Q: For `C=C[C@@]1(C)CC(=O)[C@]2(O)[C@@]3(C)[C@@H](O)CCC(C)(C)[C@@H]3[C@H](O)[C@H](OC(C)=O)[C@@]2(C)O1` [forskolin], which fold induction at 1 µM ([8]; read-out: increase over basal cAMP) is on record?
A: Its fold induction at 1 µM is 2 to 3.

Q: What about the activation at 1 µM ([8]; read-out: per cent of the maximal cAMP response) of the same compound?
A: Its activation at 1 µM is 20 to 25%.

Q: For `COc1ccc(C2CNC(=O)C2)cc1OC1CCCC1` (stereo not shown) [Rolipram, rolipram], which EC200 (concentration giving a 2-fold increase in cGMP) ([2]; Rattus norvegicus, Neuron) is on record?
A: The EC200 (concentration giving a 2-fold increase in cGMP) was 29.2 ± 10.3 µM.

Q: What about the “concentration needed to double the rate of cGMP accumulation relative to cAMP EC200” value ([2]; higher than cAMP EC200 of 2.5 μM) of the same compound?
A: The value was 10 fold.

Q: What about the “cAMP EC200/cGMP EC200” value [3] of the same compound?
A: The value was 0.09.
